From PubChem BioAssay AID248 (DTP/NCI, 2004)
“And” between values parts separate entries of the source, which are not always exact repeats. Equal values may be shown once. Inconclusive results and toxic doses are left out. Rule as the data show it: active = T/C of 150% or more; inactive = T/C below 125%.

Tested on: L1210 leukemia ip in BDF1 mice, survival T/C
Assay: NCI In Vivo Anticancer Drug Screen. Data for tumor model L1210 Leukemia (intraperitoneal) in B6D2F1 (BDF1) mice
Conditions: endpoint: mean survival time, higher = longer survival
Outline: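 Ratio derived from survival: compound-dosed mice over vehicle-dosed mice, all bearing a transplantable tumor.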

Measured: T/C

COC(=O)[C@@]12OC[C@]34[C@H]([C@@H](O)[C@@H]1O)[C@@]1(C)CC(=O)C(O)=C(C)[C@@H]1C[C@H]3OC(=O)[C@H](OC(=O)/C=C(\C)C(C)C)[C@@H]24
inactive: dose: 0.03 mg/kg/injection, schedule: Q01DX009 (ip), vehicle: other 111 % of control | dose: 0.03 mg/kg/injection, schedule: Q01DX009 (ip), vehicle: saline with Tween-80 111 % of control | dose: 0.03 mg/kg/injection, schedule: Q03HX024 (ip), vehicle: other 107 % of control | dose: 0.03 mg/kg/injection, schedule: Q03HX024 (ip), vehicle: saline with Tween-80 108 % of control | dose: 0.06 mg/kg/injection, schedule: Q01DX009 (ip), vehicle: other 111 % of control and 116 % of control | dose: 0.06 mg/kg/injection, schedule: Q01DX009 (ip), vehicle: saline with Tween-80 110 % of control and 120 % of control | dose: 0.06 mg/kg/injection, schedule: Q03HX024 (ip), vehicle: other 107 % of control | dose: 0.06 mg/kg/injection, schedule: Q03HX024 (ip), vehicle: saline with Tween-80 114 % of control | dose: 0.12 mg/kg/injection, schedule: Q01DX009 (ip), vehicle: other 118 % of control and 123 % of control | dose: 0.12 mg/kg/injection, schedule: Q01DX009 (ip), vehicle: saline with Tween-80 117 % of control | dose: 0.12 mg/kg/injection, schedule: Q03HX024 (ip), vehicle: other 121 % of control | dose: 0.12 mg/kg/injection, schedule: Q03HX024 (ip), vehicle: saline with Tween-80 116 % of control | dose: 0.25 mg/kg/injection, schedule: Q01DX009 (ip), vehicle: saline with Tween-80 121 % of control | dose: 0.25 mg/kg/injection, schedule: Q03HX024 (ip), vehicle: other 121 % of control | dose: 0.5 mg/kg/injection, schedule: Q01DX009 (ip), vehicle: other 117 % of control | dose: 0.5 mg/kg/injection, schedule: Q01DX009 (ip), vehicle: saline with Tween-80 123 % of control | dose: 0.6 mg/kg/injection, schedule: Q01DX009 (ip), vehicle: saline + alcohol 96 % of control | dose: 0.8 mg/kg/injection, schedule: Q01DX009 (ip), vehicle: saline + alcohol 112 % of control | dose: 1.0 mg/kg/injection, schedule: Q01DX009 (ip), vehicle: other 122 % of control | dose: 1.3 mg/kg/injection, schedule: Q01DX009 (ip), vehicle: saline + alcohol 114 % of control | dose: 2.0 mg/kg/injection, schedule: Q01DX009 (ip), vehicle: saline + alcohol 123 % of control | dose: 8.0 micrograms/kg/injection, schedule: Q01DX009 (ip), vehicle: saline + alcohol 91 % of control | dose: 16.0 micrograms/kg/injection, schedule: Q01DX009 (ip), vehicle: saline + alcohol 100 % of control | dose: 31.0 micrograms/kg/injection, schedule: Q01DX009 (ip), vehicle: saline + alcohol 109 % of control | dose: 62.0 micrograms/kg/injection, schedule: Q01DX009 (ip), vehicle: saline + alcohol 114 % of control | dose: 250.0 micrograms/kg/injection, schedule: Q01DX009 (ip), vehicle: saline + alcohol 115 % of control | dose: 500.0 micrograms/kg/injection, schedule: Q01DX009 (ip), vehicle: saline + alcohol 114 % of control | dose: 1000.0 micrograms/kg/injection, schedule: Q01DX009 (ip), vehicle: saline + alcohol 120 % of control | dose: 2000.0 micrograms/kg/injection, schedule: Q01DX009 (ip), vehicle: saline + alcohol 117 % of control

N#CC1OB(O)c2ccccc21 (stereo not given)
inactive: dose: 100.0 mg/kg/injection, schedule: Q04DX003 (ip), vehicle: saline 93 % of control | dose: 200.0 mg/kg/injection, schedule: Q04DX003 (ip), vehicle: saline 100 % of control | dose: 400.0 mg/kg/injection, schedule: Q04DX003 (ip), vehicle: saline 93 % of control

CN1CCN(c2ncnc3c2ncn3C2OC(CO)C(O)C2O)CC1 (stereo not given)
inactive: dose: 100.0 mg/kg/injection, schedule: Q01DX005 (ip), vehicle: water 95 % of control | dose: 200.0 mg/kg/injection, schedule: Q01DX005 (ip), vehicle: water 90 % of control | dose: 400.0 mg/kg/injection, schedule: Q01DX005 (ip), vehicle: water 93 % of control

O=C(OCc1ccccc1CN1CCCCC1)c1ccccc1
inactive: dose: 25.0 mg/kg/injection, schedule: Q04DX002 (ip), vehicle: Klucel (hydroxypropylcellulose) (HPC) 97 % of control | dose: 50.0 mg/kg/injection, schedule: Q04DX002 (ip), vehicle: Klucel (hydroxypropylcellulose) (HPC) 101 % of control | dose: 100.0 mg/kg/injection, schedule: Q04DX002 (ip), vehicle: Klucel (hydroxypropylcellulose) (HPC) 97 % of control

C=C(C)C1CCC(C)=CC1c1c(OC(=O)c2cc([N+](=O)[O-])cc([N+](=O)[O-])c2)cc(CCCCC)cc1OC(=O)c1cc([N+](=O)[O-])cc([N+](=O)[O-])c1 (stereo not given)
inactive: dose: 100.0 mg/kg/injection, schedule: Q01DX001 (ip), vehicle: Klucel (hydroxypropylcellulose) (HPC) 92 % of control | dose: 200.0 mg/kg/injection, schedule: Q01DX001 (ip), vehicle: Klucel (hydroxypropylcellulose) (HPC) 91 % of control | dose: 400.0 mg/kg/injection, schedule: Q01DX001 (ip), vehicle: Klucel (hydroxypropylcellulose) (HPC) 92 % of control

COC(=O)c1cccc([N+](=O)[O-])c1Br
inactive: dose: 50.0 mg/kg/injection, schedule: Q01DX001 (ip), vehicle: other 102 % of control | dose: 100.0 mg/kg/injection, schedule: Q01DX001 (ip), vehicle: other 96 % of control | dose: 200.0 mg/kg/injection, schedule: Q01DX001 (ip), vehicle: other 102 % of control | dose: 400.0 mg/kg/injection, schedule: Q01DX001 (ip), vehicle: other 100 % of control
